Source: patent publication US10329262B2, “Quinazolinone antibiotics” (priority 2013, dated 2019)
Converted amounts (≈) assume the structure as drawn. Where two headings read alike, the source gives them in different places.

Experiments:
[1] = test system: S. aureus VRS2; assay: MIC, CLSI broth microdilution, S. aureus VRS2; format: cell-based, Staphylococcus aureus; settings: for MIC: Staphylococcus aureus; for In vitro AB activity (MIC): Table 2.1, S. aureus VRS2
Procedure: (§1) MICs were evaluated following the CLSI microdilution method in BBL™ Mueller-Hinton II broth (Wikler et al., Clinical Laboratory Standards Institute Document M7-A7, 29 (2009)). Briefly, two-fold serial dilutions of compound were prepared in triplicate in 96-well plates and inoculated with 5×10^5 cfu/mL of the bacterial suspension. Plates were incubated at 37° C. for 16-20 hours.

[2] = test system: S. aureus NRS100; assay: MIC, CLSI broth microdilution, S. aureus NRS100; format: cell-based, Staphylococcus aureus; settings: for MIC: Staphylococcus aureus; for In vitro AB activity (MIC): Table 2.1, S. aureus NRS100
Procedure: as §1

[3] = test system: S. aureus NRS123; assay: MIC, broth microdilution, S. aureus NRS123; format: cell-based; settings: Staphylococcus aureus
Procedure: as §1

[4] = test system: S. aureus NRS119; assay: MIC, CLSI broth microdilution, S. aureus NRS119; format: cell-based, Staphylococcus aureus; settings: for MIC: Staphylococcus aureus; for In vitro AB activity (MIC): Table 2.1, S. aureus NRS119
Procedure: as §1

[5] = test system: S. aureus NRS70; assay: MIC, broth microdilution, S. aureus NRS70; format: cell-based, Staphylococcus aureus; settings: for MIC: Staphylococcus aureus; for In vitro AB activity (MIC): Table 2.1, S. aureus NRS70
Procedure: as §1

[6] = test system: S. aureus VRS1; assay: MIC, CLSI broth microdilution, S. aureus VRS1; format: cell-based, Staphylococcus aureus; settings: for MIC: Staphylococcus aureus; for In vitro AB activity (MIC): Table 2.1, S. aureus VRS1
Procedure: as §1

[7] = test system: S. aureus NRS120; assay: MIC, CLSI broth microdilution, S. aureus NRS120; format: cell-based, Staphylococcus aureus; settings: for MIC: Staphylococcus aureus; for In vitro AB activity (MIC): Table 2.1, S. aureus NRS120
Procedure: as §1

[8] = test system: S. aureus ATCC 29213 (MSSA); assay: MIC, CLSI broth microdilution, S. aureus ATCC 29213; format: cell-based, Staphylococcus aureus; settings: for In vitro AB activity (MIC): Table 2.1, S. aureus ATCC 29213; for MIC (w/ BSA): S. aureus ATCC 29213, in the presence of bovine serum albumin; for MIC: S. aureus strain ATCC 29213 (MSSA)
Procedure: as §1

[9] = test system: S. haemolyticus ATCC 29970; assay: MIC, CLSI broth microdilution, S. haemolyticus ATCC 29970; format: cell-based; settings: for MIC: Staphylococcus haemolyticus, ATCC29970; for In vitro AB activity (MIC): Table 2.1, S. haemolyticus ATCC 29970
Procedure: as §1

[10] = test system: S. aureus NRS128; assay: MIC, CLSI broth microdilution, S. aureus NRS128; format: cell-based, Staphylococcus aureus; settings: Table 2.1, S. aureus NRS128
Procedure: as §1

[11] = Pharmacokinetics in mice; settings: Table 1, ICR female mice, single dose iv
Procedure: We conducted first fast PK studies (n=2 mice per time point, 5 time points) dosing the compounds iv, followed by full PK studies for selected compounds (n=3 mice per time point, 10-12 time points per route of administration, iv and po).
A single dose of compound 2 was administered to mice (n=3 per time point) by tail vein injection or by oral gavage at 10 mg/kg. Blood was collected by cardiac puncture in heparinized syringes at 2, 5, 20, and 40 min and at 1, 2, 3, 4, 8, 18, and 24 h after iv dosing and at 0.5, 1, 2, 3, 4, 6, 9, 24, and 30 h after po dosing. Blood was centrifuged to obtain plasma. A 50-μL aliquot of plasma was mixed with 100 μL of acetonitrile containing internal standard (5 μM final concentration), followed by centrifugation at 20,000 g for 15 min. The supernatant was analyzed by reverse-phase UPLC. PK parameters were calculated as described in the Plasma protein binding and Pharmacokinetics sections below (see also Gooyit et al. J. Med. Chem. 54, 6676-6690 (2011)).
The area under the concentration-time curve up to the last quantifiable sampling time (AUC0-last) was calculated by the trapezoidal rule. AUC0-∞ was calculated as AUC0-last+(Clast/k), where Clast is the concentration at the last quantifiable sampling time and k is the elimination rate constant. The concentration at time=0 (C0) was estimated from the first sampling times by back-extrapolation using log-linear regression analysis. Half-lives (t1/2α and t1/2β) were estimated from the linear portion of the initial or terminal concentration-time data by linear regression, where the slope of the line was the rate constant k and t1/2α=ln 2/k. Volume of distribution (Vd) was calculated as the dose divided by the initial concentration (C0). Clearance (CL) was calculated from the dose divided by AUC0-∞. Oral bioavailability (F) was calculated by dividing the AUCpo by the AUCiv, as equivalent iv and po doses were administered.

[12] = test system: MRSA ATCC 27660; assay: Mouse peritonitis model of MRSA infection; format: in vivo, mice; settings: 10 mg/kg iv at 30 min and 4.5 hr after infection, n = 6, 48 h
Procedure: We evaluated several compounds in in vivo mouse infection models, as well as in pharmacokinetic (PK) studies in mice (Table 1). The in vivo efficacy was determined using the rapid mouse peritonitis model of infection, in which the end point is death or survival in 48 hours. We initially dosed the compounds intravenously (iv) at a single dose level. If the compound has good in vivo efficacy after iv administration, we then evaluated efficacy at five dose levels. We also investigated in vivo efficacy after oral (po) administration.
Groups (n=6/group) of mice were infected with MRSA (0.5 mL of ATCC 27660 at a final concentration of 5×10^7 CFU/mL in 5% porcine mucin) intraperitoneally (ip). Following infection, mice were given iv doses by tail vein injection of compound 2, vancomycin (5 mg/kg, positive control), or vehicle at 30 min and 4.5 h after infection. The number of surviving mice was monitored for 48 h. The negative control (vehicle) typically results in the death of all mice. Quinazolinone 2 was dissolved in saline, sterile-filtered, and administered at doses of 2.5, 5, 7.5, 10, 20, and 30 mg/kg. The ED50 value was calculated using GraphPad prism 5.

[13] = test system: S. epidermidis ATCC 35547; assay: MIC, CLSI broth microdilution, S. epidermidis ATCC 35547; format: cell-based
Procedure: as §1

[14] = NRS123, Table 3, single agent, read-out: MIC NRS123
[15] = NRS70, Table 3, single agent, read-out: MIC NRS70

SMILES: Cc1onc(-c2ccccc2)c1C(=O)N[C@@H]1C(=O)N2[C@@H]1SC(C)(C)[C@@H]2C(=O)O [oxacillin]
- MIC ([1]; Table 2, S. aureus VRS2, read-out: MIC): 256 µg/mL (≈ 638 µM)
- In vitro AB activity (MIC) [1]: 256 µg/mL
- MIC ([2]; Table 2, S. aureus NRS100, read-out: MIC): 512 µg/mL (≈ 1280 µM)
- In vitro AB activity (MIC) [2]: 512 µg/mL
- MIC [3, 14]: 32 µg/mL (≈ 79.7 µM)
- MIC ([3]; Table 2, S. aureus NRS123, read-out: MIC): 32 µg/mL (≈ 79.7 µM)
- MIC ([4]; Table 2, S. aureus NRS119, read-out: MIC): 512 µg/mL (≈ 1280 µM)
- In vitro AB activity (MIC) [4]: 512 µg/mL
- MIC [5, 15]: 64 µg/mL (≈ 159 µM)
- MIC ([5]; Table 2, S. aureus NRS70, read-out: MIC): 32 µg/mL (≈ 79.7 µM)
- In vitro AB activity (MIC) [5]: 32 µg/mL
- MIC ([6]; Table 2, S. aureus VRS1, read-out: MIC): 512 µg/mL (≈ 1280 µM)
- In vitro AB activity (MIC) [6]: 512 µg/mL
- MIC ([7]; Table 2, S. aureus NRS120, read-out: MIC): 512 µg/mL (≈ 1280 µM)
- In vitro AB activity (MIC) [7]: 512 µg/mL
- In vitro AB activity (MIC) [8]: 0.25 µg/mL
- MIC ([9]; Table 2, S. haemolyticus ATCC 29970, read-out: MIC): 0.25 µg/mL (≈ 0.623 µM)
- In vitro AB activity (MIC) [9]: 0.25 µg/mL
- In vitro AB activity (MIC) [10]: 0.5 µg/mL

SMILES: CO/N=C(\C(=O)N[C@@H]1C(=O)N2C(C(=O)[O-])=C(C[N+]3(C)CCCC3)CS[C@H]12)c1csc(N)n1 [cefepime]
- MIC [3, 14]: 32 µg/mL (≈ 66.6 µM)
- MIC [5, 15]: 64 µg/mL (≈ 133 µM)

SMILES: CS(=O)(=O)Nc1cccc(-n2c(/C=C/c3ccc(F)cc3)nc3ccccc3c2=O)c1 [Compound 6]
- AUC (iv) [11]: AUC = 819 μg.min/mL
- CL [11]: CL = 28.0 mL/min/kg
- Vd [11]: Vd = 91.8 mL
- MIC (w/ BSA) [8]: 1 µg/mL
- MIC [8]: 0.125 µg/mL (≈ 0.287 µM)
- In Vivo Efficacy (survived/total mice) [12]: 0/6 @ 10 mg/kg

SMILES: CN[C@H](CC(C)C)C(=O)N[C@H]1C(=O)N[C@@H](CC(N)=O)C(=O)N[C@H]2C(=O)N[C@H]3C(=O)N[C@H](C(=O)N[C@H](C(=O)O)c4cc(O)cc(O)c4-c4cc3ccc4O)[C@H](O)c3ccc(c(Cl)c3)Oc3cc2cc(c3O[C@@H]2O[C@H](CO)[C@@H](O)[C@H](O)[C@H]2O[C@H]2C[C@](C)(N)[C@H](O)[C@H](C)O2)Oc2ccc(cc2Cl)[C@H]1O [vancomycin]
- MIC ([1]; VRS2): 64 µg/mL (≈ 44.2 µM)
- In vitro AB activity (MIC) [1]: 64 µg/mL
- MIC ([2]; NRS100): 2 µg/mL (≈ 1.38 µM)
- In vitro AB activity (MIC) [2]: 2 µg/mL
- MIC ([3]; NRS123): 1 µg/mL (≈ 0.69 µM)
- MIC ([4]; NRS119): 2 µg/mL (≈ 1.38 µM)
- In vitro AB activity (MIC) [4]: 2 µg/mL
- MIC ([5]; NRS70): 1 µg/mL (≈ 0.69 µM)
- In vitro AB activity (MIC) [5]: 1 µg/mL
- MIC ([6]; VRS1): > 256 µg/mL
- In vitro AB activity (MIC) [6]: 512 µg/mL
- MIC ([7]; NRS120): 2 µg/mL (≈ 1.38 µM)
- In vitro AB activity (MIC) [7]: 2 µg/mL
- In vitro AB activity (MIC) [8]: 1 µg/mL
- MIC ([13]; Staphylococcus epidermidis, ATCC35547): 64 µg/mL (≈ 44.2 µM)
- In vitro AB activity (MIC) ([13]; Table 2.1, S. epidermidis ATCC 35547): 16 µg/mL
- MIC [9]: 2 µg/mL (≈ 1.38 µM)
- In vitro AB activity (MIC) [9]: 2 µg/mL
- In vitro AB activity (MIC) [10]: 1 µg/mL

SMILES: CC(=O)Nc1cccc(-n2c(/C=C/c3ccc(F)cc3)nc3ccccc3c2=O)c1 [Compound 5]
- AUC (iv) [11]: AUC = 284 μg.min/mL
- CL [11]: CL = 88.2 mL/min/kg
- Vd [11]: Vd = 55.0 mL
- MIC (w/ BSA) [8]: 8 µg/mL
- MIC [8]: 1 µg/mL (≈ 2.5 µM)
- In Vivo Efficacy (survived/total mice) [12]: 2/6 @ 10 mg/kg
